≈ marks a conversion by molar mass, not a printed value. Starred links: 1 amine or outer side, 2 acyl side, 3 side chain; linkers in the order of their positions; H or OH if unused. Positions of bridges follow the written chain, without caps; N, C: chain ends. Non-standard residues stand in square brackets, D forms with d. Residues, ends and D or L forms follow the SMILES beside them. Groups on a side chain read outwards from the residue. Chains are numbered I, II in the order given. εLys = N[C@@H](CCCCN[*:1])C(=O)[*:2]
Key:
P. aeruginosa PAO1 = format: cell-based, Pseudomonas aeruginosa; conditions: PAO1, 24 h
Procedure: (§1) For our experiments, we used strains obtained from the American Type Culture Collection (ATCC), including P. aeruginosa PAO1, E. coli K12 parental type, S. aureus ATCC 6538P, and B. subtilis ATCC 6051. The MIC assays were performed as reported by Wiegand et al. using the broth microdilution method in 96-well round-bottom microplates.[35] The MIC was defined as the lowest concentration at which no bacterial growth was observed. Briefly, bacteria were inoculated into Mueller Hinton broth (MHB), cultured overnight at 37 °C, and transferred to a new MHB until the exponential phase of growth. The bacteria were diluted to 1 × 10^6 CFU/mL using MHB, and the peptides were prepared in double-distilled water (DDW) filtered over a 0.25 μm filter. To 50 μL of the MHB medium containing two fold serially diluted peptides with concentrations ranging from 1.56 to 50 μM were added 50 μL aliquots of the bacterial solution. The plates were incubated for 24 h at 37 °C. The positive and negative controls used were cultured without peptides (100% growth) and uninoculated MHB broth (0% growth). The bacterial growth inhibition was evaluated by measuring the absorbance at 600 nm using a microplate autoreader (SynersyMx, Biotek).

S. aureus ATCC 6538P = format: cell-based, Staphylococcus aureus; conditions: ATCC 6538, 24 h
Procedure: as §1

B. subtilis ATCC 6051 = format: cell-based, Bacillus subtilis; conditions: ATCC 6051, 24 h
Procedure: as §1

trypsin = trypsin 10 μg/mL, peptide 100 μM in PBS pH 7.4, after 30 min of incubation; RP-HPLC peak area relative to t0
Procedure: Proteolysis was measured by RP-HPLC using the following parameters, as reported.[33] Trypsin with a final concentration of 10 μg/mL was added to a solution of the peptides in PBS (pH 7.4) (100 μM). The reaction was monitored over time using reversed-phase HPLC (C18 reversed-phase Bio-Rad analytical column, 250 × 4 mm, 300 Å pore size, and 7 μm particle size). The column was eluted in 40 min using a linear gradient of 10–90% acetonitrile in water, both containing 0.1% trifluoroacetic acid (v/v), at a flow rate of 0.6 mL/min.

| SMILES | MIC (P. aeruginosa PAO1) [µM] | MIC (S. aureus ATCC 6538P) [µM] | MIC (B. subtilis ATCC 6051) [µM] | peptide remaining intact with trypsin (trypsin) |
| --- | --- | --- | --- | --- |
| CC(C)C[C@H](NC(=O)[C@H](CC(C)C)NC(=O)[C@H](CCCCN)NC(=O)[C@H](CC(C)C)NC(=O)[C@H](CC(C)C)NC(=O)[C@H](CCCCN)NC(=O)[C@H](CCCCN)NC(=O)[C@H](CC(C)C)NC(=O)[C@H](CC(C)C)NC(=O)[C@H](CCCCN)NC(=O)[C@H](CCCCN)NC(=O)[C@H](CC(C)C)NC(=O)[C@H](CC(C)C)NC(=O)[C@@H](N)CCCCNC(=O)[C@@H](N)CC(C)C)C(N)=O [Amp1EP2] (H-K(Leu)LLKKLLKKLLKLL-NH2) | 1.56 (≈ 2.82 µg/mL) | 1.56 (≈ 2.82 µg/mL) | 1.56 (≈ 2.82 µg/mL) |  |
| CC(C)C[C@H](NC(=O)[C@H](CC(C)C)NC(=O)[C@H](CCCCN)NC(=O)[C@H](CC(C)C)NC(=O)[C@H](CC(C)C)NC(=O)[C@H](CCCCN)NC(=O)[C@H](CCCCN)NC(=O)[C@H](CC(C)C)NC(=O)[C@H](CC(C)C)NC(=O)[C@H](CCCCN)NC(=O)[C@@H](N)CCCCNC(=O)[C@H](CC(C)C)NC(=O)[C@H](CC(C)C)NC(=O)[C@H](CCCCN)NC(=O)[C@@H](N)CC(C)C)C(N)=O [Amp1EP5] (H-K([Leu-Leu-Lys-Leu])KLLKKLLKLL-NH2) | 3.12 (≈ 5.63 µg/mL) | 3.12 (≈ 5.63 µg/mL) | 1.56 (≈ 2.82 µg/mL) |  |
| CC(C)C[C@H](NC(=O)[C@H](CC(C)C)NC(=O)[C@H](CCCCN)NC(=O)[C@H](CC(C)C)NC(=O)[C@H](CC(C)C)NC(=O)[C@H](CCCCN)NC(=O)[C@H](CCCCN)NC(=O)[C@H](CC(C)C)NC(=O)[C@H](CC(C)C)NC(=O)[C@@H](N)CCCCNC(=O)[C@H](CCCCN)NC(=O)[C@H](CC(C)C)NC(=O)[C@H](CC(C)C)NC(=O)[C@H](CCCCN)NC(=O)[C@@H](N)CC(C)C)C(N)=O [Amp1EP6] (I: H-KLLKKLLKLL-NH2 / II: H-LKLLK; amide I:1-II:C) | 1.56 (≈ 2.82 µg/mL) | 1.56 (≈ 2.82 µg/mL) | 1.56 (≈ 2.82 µg/mL) |  |
| CC(C)C[C@H](NC(=O)[C@H](CC(C)C)NC(=O)[C@H](CCCCN)NC(=O)[C@H](CC(C)C)NC(=O)[C@H](CC(C)C)NC(=O)[C@H](CCCCN)NC(=O)[C@@H](N)CCCCNC(=O)[C@H](CC(C)C)NC(=O)[C@H](CC(C)C)NC(=O)[C@H](CCCCN)NC(=O)[C@H](CCCCN)NC(=O)[C@H](CC(C)C)NC(=O)[C@H](CC(C)C)NC(=O)[C@H](CCCCN)NC(=O)[C@@H](N)CC(C)C)C(N)=O [Amp1EP9] (H-LKLLKKLL[εLys]KLLKLL-NH2) | 3.12 (≈ 5.63 µg/mL) | 6.25 (≈ 11.3 µg/mL) | 3.12 (≈ 5.63 µg/mL) | 40% |
| CC(C)C[C@H](NC(=O)[C@H](CC(C)C)NC(=O)[C@H](CCCCN)NC(=O)[C@H](CC(C)C)NC(=O)[C@H](CC(C)C)NC(=O)[C@@H](N)CCCCNC(=O)[C@H](CCCCN)NC(=O)[C@H](CC(C)C)NC(=O)[C@H](CC(C)C)NC(=O)[C@H](CCCCN)NC(=O)[C@H](CCCCN)NC(=O)[C@H](CC(C)C)NC(=O)[C@H](CC(C)C)NC(=O)[C@H](CCCCN)NC(=O)[C@@H](N)CC(C)C)C(N)=O [Amp1EP10] (H-LKLLKKLLK[εLys]LLKLL-NH2) | 3.12 (≈ 5.63 µg/mL) | 3.12 (≈ 5.63 µg/mL) | 3.12 (≈ 5.63 µg/mL) |  |
| CC(C)C[C@H](NC(=O)[C@H](CC(C)C)NC(=O)[C@@H](N)CCCCNC(=O)[C@H](CC(C)C)NC(=O)[C@H](CC(C)C)NC(=O)[C@H](CCCCN)NC(=O)[C@H](CCCCN)NC(=O)[C@H](CC(C)C)NC(=O)[C@H](CC(C)C)NC(=O)[C@H](CCCCN)NC(=O)[C@H](CCCCN)NC(=O)[C@H](CC(C)C)NC(=O)[C@H](CC(C)C)NC(=O)[C@H](CCCCN)NC(=O)[C@@H](N)CC(C)C)C(N)=O [Amp1EP13] (H-LKLLKKLLKKLL[εLys]LL-NH2) | 1.56 (≈ 2.82 µg/mL) | 1.56 (≈ 2.82 µg/mL) | 1.56 (≈ 2.82 µg/mL) |  |
| CC(C)C[C@H](NC(=O)[C@H](CC(C)C)NC(=O)[C@H](CCCCN)NC(=O)[C@H](CC(C)C)NC(=O)[C@H](CC(C)C)NC(=O)[C@H](CCCCN)NC(=O)[C@H](CCCCN)NC(=O)[C@H](CC(C)C)NC(=O)[C@H](CC(C)C)NC(=O)[C@H](CCCCN)NC(=O)[C@H](CCCCN)NC(=O)[C@H](CC(C)C)NC(=O)[C@H](CC(C)C)NC(=O)[C@H](CCCCN)NC(=O)[C@@H](N)CC(C)C)C(N)=O [Amp1L, reference compound] (H-LKLLKKLLKKLLKLL-NH2) | 12.5 (≈ 22.6 µg/mL) | 12.5 (≈ 22.6 µg/mL) | 12.5 (≈ 22.6 µg/mL) | neither the parental peptide Amp1L nor any of the other modified peptides were detected |

Source: publication PMC8958506, “Site-Specific Isopeptide Bond Formation: A Powerful Tool for the Generation of Potent and Nontoxic Antimicrobial Peptides” (Journal of Medicinal Chemistry, 2022)
